Results published in patent US11339111B2, “Polyketide compound and derivatives thereof for use in the prevention and treatment of a neurological disorder” (SOCIETE DES PRODUITS NESTLE S.A., priority 2017, dated 2022).
Read-outs that look alike come from different tables or passages of the source.

Columns and labels:
[1] = system: human iPSc derived into astrocytes; experiment: Lactate release dose response in human iPSc derived astrocytes; format: cell-based; conditions: 2 hours treatment
Experimental: Dose response curves were established for compounds identified in the screen to stimulate lactate secretion. The EC50 values for the stimulation of lactate secretion were determined using primary human IPS cell derived astrocytes.
Differentiated human iPSCs (iCell astrocytes, and iCell cardiomyocytes) were obtained from Cellular Dynamics International (CDI, Madison, Wis., USA). iCell astrocytes were cultured in DMEM supplemented with 10% fetal calf serum and N2 complement. iCell cardiomyocytes were maintained in a medium supplied by CDI. Cell cultures were kept in a humidified atmosphere (5% CO2) at 37° C.
Dose response of compounds on lactate release from human iPSc derived into astrocyte fitted with a log (agonist) vs response variable slope to extract efficacy (EC50). Mean±SEM in duplicate.
The unsaturated polyketide/macrocyclic lactone compound mentioned throughout the Examples section is proposed to have the structure corresponding to Compound A as described herein. The toxicity expressed in log IC50 (ATP content after 24 hours compound treatment on human iPSc derived into cardiomyocyte) was compared against the lactate release in log EC50 (lactate secretion after 2 hours compound treatment in human iPSc derived into astrocytes).
Y-axis: relative fluorescence unit, X-axis: logarithm concentration of the compound in mg/ml for fraction and molar for pure compound. […]

[2] = system: human iPSc derived into cardiomyocyte; experiment: Toxicity - ATP content (CellTiter-Glo); format: cell-based; conditions: ATP content after 24 hours
Experimental: iCell Cardiomyocytes were seeded in 384-well plates. Eight days later cells were treated for 24 hours with compounds. Cell viability was determined by the quantification of intracellular ATP after cell lysis. ATP was used as an indicator of metabolically active cells. ATP was measured using a luminescent cell viability assay (CellTiter-Glo®; […]). Luminescence was measured after 20 min in a Bioteck Synergie Neo multimode reader.
Toxicity of the unsaturated polyketide/macrocyclic lactone compounds were evaluated in human IPS cell derived cardiomyocytes by measuring total ATP in cell lysates.
Dose response of compounds on human iPSc derived into cardiomyocyte with evaluation of the ATP level using cell titer glow. Results were normalized between untreated cells (100%) and positive control (0%).
The unsaturated polyketide/macrocyclic lactone compound mentioned throughout the Examples section is proposed to have the structure corresponding to Compound A as described herein. […]
Y-axis: relative fluorescence unit in percentage, X-axis: logarithm concentration of the compound in mg/ml for fraction and molar for pure compound. […]

- EC50 ([1]; pure compound (head: mg/ml or M; molar for pure compound), read-out: Astrocytes Lactate release EC50): 1.6 µM
- EC50 ([1]; pure compound, log of molar concentration, read-out: Astrocytes Lactate release logEC50 (converted)): 2 µM
Structure (SMILES): C/C1=C\C(C)C(=O)CC(O)/C(C)=C/C(C)CC(C)CCC(C(C)C(=O)O)OC(=O)C(C)C1 (stereo not shown)
- IC50 ([2]; pure compound (molar), read-out: Cardiomyocytes Toxicity IC50): > 100 µM
- IC50 ([2]; pure compound, log of molar concentration, read-out: Cardiomyocytes Toxicity log IC50 (converted)): > 100 µM
